Here are results for two compounds from publication PMC6540222, “Small Molecule Inhibitors of KDM5 Histone Demethylases Increase the Radiosensitivity of Breast Cancer Cells Overexpressing JARID1B” (Molecules, 2019).

The target of one data set is KDM5D (Homo sapiens, UniProt Q9BY66). Nature of the data set: Surface Plasmon Resonance (SPR), immobilized KDM5D. As to conditions: KDM5D immobilized on COOH5 sensorchip, buffer HSP-1%D, analyte 6.25-100 μM. Format: binding. On the procedure: Surface Plasmon Resonance (SPR) experiments were carried out using a SensiQ Pioneer system (ICx Nomadics, Stillwater, OK, USA). Immobilization of ligand (KDM5D) was carried out essentially as in Ilari et al.. The sensor chip (COOH5) was activated chemically by a 100 µL injection of a 1:1 mixture of N-ethyl-N′-(3-([…])carbodiimide (200 mM) and N-hydroxysuccinimide (50 mM) at a flow rate of 5 µL/min. KDM5D was immobilized on activated sensor chips via amine coupling. The immobilization was carried out in 20 mM sodium acetate at pH 4.5; the remaining unreacted groups were blocked by injecting 1 M ethanolamine hydrochloride (100 µL). The amount of immobilized KDM5D was detected by mass concentration-dependent changes in the refractive index on the sensor chip surface and corresponded to about 11,000 resonance units (RU); an empty flow cell was used as a reference. Analytes, i.e., inhibitors RS3152, RS3183, RS3195, RS4995 and RS5033 were dissolved in DMSO at a concentration of 10 mM and diluted in HSP buffer (10 mM Hepes pH 7.4, 150 mM NaCl + 0.005% surfactant P20) to yield 100 μM inhibitor concentration in HSP + 1% DMSO (HSP-1%D). The analytes were automatically diluted in HSP-1%D and injected on the sensorchip for 120 s at a constant flow (30 µL/min); analyte concentrations were: (1) 6.25 μM; (2) 12.5 μM; (3) 25 μM; (4) 50 μM; (5) 100 μM. The increase in RU relative to baseline indicates complex formation; the plateau region represents the steady-state phase of the interaction, whereas the decrease in RU after 120 s represents dissociation of analytes from immobilized KDM5 after injection of buffer HSP-1%D. The sensorgrams were analysed using the SensiQ Qdat 4.0 program and using simple Scatchard plots.
KDM5D, sequence (Q9BY66 whole entry): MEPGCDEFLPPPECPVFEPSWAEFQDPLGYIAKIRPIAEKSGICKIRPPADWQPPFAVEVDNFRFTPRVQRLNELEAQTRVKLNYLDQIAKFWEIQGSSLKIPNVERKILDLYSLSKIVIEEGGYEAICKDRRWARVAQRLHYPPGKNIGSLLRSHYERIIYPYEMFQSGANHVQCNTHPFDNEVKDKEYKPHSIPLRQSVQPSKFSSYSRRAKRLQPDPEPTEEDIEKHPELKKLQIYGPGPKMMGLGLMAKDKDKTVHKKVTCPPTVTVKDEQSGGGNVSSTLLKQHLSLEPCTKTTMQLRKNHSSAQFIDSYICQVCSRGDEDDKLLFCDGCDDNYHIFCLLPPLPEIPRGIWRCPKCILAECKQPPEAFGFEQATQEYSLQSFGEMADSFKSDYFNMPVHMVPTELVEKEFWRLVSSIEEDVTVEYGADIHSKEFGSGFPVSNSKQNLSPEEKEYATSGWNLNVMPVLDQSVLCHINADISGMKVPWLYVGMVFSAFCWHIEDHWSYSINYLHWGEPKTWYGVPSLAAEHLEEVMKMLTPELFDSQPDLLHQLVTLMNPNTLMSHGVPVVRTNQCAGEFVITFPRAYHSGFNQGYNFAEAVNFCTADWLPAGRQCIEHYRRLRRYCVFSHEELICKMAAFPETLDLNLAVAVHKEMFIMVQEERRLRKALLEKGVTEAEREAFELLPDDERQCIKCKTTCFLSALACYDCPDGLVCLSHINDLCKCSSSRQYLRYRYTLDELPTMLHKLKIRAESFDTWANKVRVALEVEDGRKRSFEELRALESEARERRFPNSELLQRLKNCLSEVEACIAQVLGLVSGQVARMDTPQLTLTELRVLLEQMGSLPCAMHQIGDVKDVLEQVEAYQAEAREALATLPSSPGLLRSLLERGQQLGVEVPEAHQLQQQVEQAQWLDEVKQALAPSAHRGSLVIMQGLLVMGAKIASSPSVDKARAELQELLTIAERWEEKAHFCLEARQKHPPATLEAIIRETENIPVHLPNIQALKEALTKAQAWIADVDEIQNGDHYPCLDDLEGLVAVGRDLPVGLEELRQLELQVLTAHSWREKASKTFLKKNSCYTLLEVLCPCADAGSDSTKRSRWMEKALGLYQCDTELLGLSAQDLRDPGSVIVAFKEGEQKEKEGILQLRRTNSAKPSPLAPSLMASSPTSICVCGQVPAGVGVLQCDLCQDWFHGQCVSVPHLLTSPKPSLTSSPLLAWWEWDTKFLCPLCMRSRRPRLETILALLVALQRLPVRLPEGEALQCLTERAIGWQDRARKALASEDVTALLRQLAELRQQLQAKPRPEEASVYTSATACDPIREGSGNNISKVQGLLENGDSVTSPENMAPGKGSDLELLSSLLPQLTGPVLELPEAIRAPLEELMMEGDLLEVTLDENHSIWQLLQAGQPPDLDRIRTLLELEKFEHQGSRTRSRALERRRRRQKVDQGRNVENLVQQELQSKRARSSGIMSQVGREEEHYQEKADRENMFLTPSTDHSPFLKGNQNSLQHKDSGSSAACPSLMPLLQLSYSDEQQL

For data set [1], the system named is H3K4me3 levels in MCF-7 cells. Nature of the data set: Western blotting of H3K4me3 levels in bulk chromatin. Format: cell-based, human. To be noted: MCF-7 bulk chromatin, 1 μM, 10 μM and 30 μM, 24 h, vs DMSO. On the procedure: Histone isolation was performed according to acid extraction of histones protocol of Shechter and colleagues. Histone concentration was determined by running 5 μL of samples and known concentrations of commercially available purified calf thymus histones (from Sigma Aldrich Cat. #000000010223565001) on a SDS-PAGE gel. The gel is stained with Coomassie blue G 250 (BIO-RAD Cat. #161-0786) for 1 hour at room temperature and then destained in distilled water. The gel image is acquired with ChemiDoc XRS+ Imaging System (Bio-Rad, Hercules, CA, USA) and the volumes of bands of the samples are compared to standard concentrations of calf thymus histone.
Proteins were resolved on a 12% (histones) or 5% (JARID1B) denaturing polyacrylamide gel, using either 4 μg of histone preparation or 40 μg of cell lysate. After electrophoresis, proteins were transferred on a nitrocellulose membrane (Protran™ […] NC, # 10600002, GE Healthcare (Amersham™), Chicago, IL, USA) via wet transfer method using a Bio-Rad tank. Transfer efficiency was verified via ponceau staining (#P7767, Sigma-Aldrich). Filters were blocked with either milk (#70166, Sigma-Aldrich) or bovine serum albumin (#A3069, Sigma-Aldrich) and then hybridized over night at 4 °C in gentle rotation with the following antibodies: rabbit anti-H3K4me3 (1:1000, #39915, Active Motif, RRID:AB_2687512); rabbit-anti-H3K27me3 (1:1000, #9733, Cell Signaling Technology, RRID:AB_2616029); rabbit-anti- H3K9pan-methylated (1:1000, #4473, RRID:AB_10544693); rabbit-anti-H3 ([…], Cat#1791, ABCAM, RRID:AB_302613); rabbit anti-H2AX (1:1000, Cat#7631, Cell Signaling Technology, RRID:AB_10860771), rabbit anti-Phospho-H2AX (1:1000, Cat#9718, Cell Signaling Technology, RRID:AB_2118009), rabbit anti-JARID1B (1:50, Cell Signaling Technology, Cat#3273 RRID: AB_1264191). Goat-anti-Rabbit Horseradish Peroxidase conjugated (1:10,000, #31460, Thermo Fisher Scientific, Waltham, MA, USA RRID:AB_228341) was used as secondary antibody for 1 hour hybridization at room temperature. Blots were scanned and analyzed with a ChemiDoc XRS+ Imaging System (Bio-Rad). The volumes of each band of protein was acquired using Bio-Rad’s ImageLab software by means of volume tools using global quantification. The signal for each protein was normalized to the housekeeping protein and ratios with average control values were determined. For histones as loading control was used either total histone H3 detected by a specific antibody or histone H1 levels by staining the upper part of the gel properly cut before protein transfer on nitrocellulose membrane.
In general terms: Immunoblotting shows a protein as a band on a membrane.

In a further data set the test system is MCF-7 cells. Nature of the data set: Flow-cytometry analysis of cell cycle distribution. Format: cell-based, human. To be noted: for cells in G2/M / subG1 cells (possible apoptotic fraction): MCF-7, 30 μM. On the procedure:
Flow-cytometry analysis of DNA content was carried out using an EPICS xl flow-cytometer (Beckman-Coulter, Brea, CA, USA). DMSO and inhibitor treated MCF-7 cells were trypsinized, pelleted, washed with PBS and finally resuspended in PBS containing 0.1% Triton-X-100 (#A1388.1000, AppliChem, Darmstadt, Germany) and 40 μg/mL propidium iodide (#P-4170, Sigma). After 20 min incubation at 37 °C the samples were analyzed. 10,000 events were acquired for each sample. Acquired data were analyzed using the WinMDI software by Joe Trotter, available at http://facs.scripps.edu.

SMILES strings stand for the structures.

For orientation: Kd means a measure of binding affinity in units of concentration. On to `CCOC(=O)c1ccccc1C(=O)c1cccc(NS(=O)(=O)c2ccc(OC)cc2)c1` [RS5033], for which the equilibrium dissociation constant (Kd) at KDM5D is 32 ± 2 µM. Besides, the H3K4me3 levels result in data set [1] was “more remarkable and significant increase of H3K4me3”. Also, the H3K4me3 levels result in data set [1] (listed as RS 5033) was “strong and significant increase”. For the same compound, the “perturbation of cell cycle dynamics” value in the data set with MCF-7 cells (MCF-7, 10 μM and 30 μM) is listed as “no significant perturbation”. For the same compound, in the data set with MCF-7 cells, the “cells in G2/M” value is “not observed” and the “subG1 cells (possible apoptotic fraction)” value is “not observed”.

`CCOC(=O)c1cccn1C(=O)c1cccc(NS(=O)(=O)c2ccc(OC)cc2)c1` [RS3195]: the affinity at KDM5D, expressed as Kd, was 38 ± 2 µM. In data set [1], the H3K4me3 levels entry is on record as “slight increase”. For the same compound, in the data set on MCF-7 cells (MCF-7, 1 μM), the cell cycle dynamics result is recorded as “No cell cycle perturbation”. Moreover, the cell cycle dynamics entry in the data set on MCF-7 cells (MCF-7, 10 μM) is recorded as “slight but significant increase of G0/G1 population”. Besides, in the data set on MCF-7 cells, the “cells in G2/M” value is reported as “clear increase of cells in G2/M” and the “subG1 cells (possible apoptotic fraction)” value is “consistent increase of subG1 cells”.
